The values that follow are results of earlier work, collected in article PMC8453745, “Human Mass Balance and Metabolite Profiling of [^14C]‐Pamiparib, a Poly (ADP‐Ribose) Polymerase Inhibitor, in Patients With Advanced Cancer” (Clinical Pharmacology in Drug Development, 2021).

In the series the test system is rat bone marrow. Also on record: method as in data on file. The conditions noted are these: in vivo rat bone marrow micronucleus assay; ref data on file; cited from earlier work.

Turning to `C[C@]12CCCN1CC1=NNC(=O)c3cc(F)cc4[nH]c2c1c34` [Pamiparib], the clastogenic activity entry is “clastogenic activity”.
